{"source": "paper PMC8969151", "about": "(2022)", "test_in_all_cases": "in vitro transcription antitermination dose-response (E. coli RNAP)", "key": {"[1]": {"system": "Cba ppGpp riboswitch with C3-SC1 leader (PRA1_Cap3_SC1_Cba2-2_dRP1) (RNA, riboswitch) AUUCGGUGCUCUUCUCUUCGGCCUUCGGGCCAAAAUAAGAGAGUGUAUCUAGGGUUCCGGUCAAUAGAUGUCUGGUCCGAGCGAUACAGGAUUUCAAUCUACACUUUUAGGAAAAAAGCCUAAAGGACGAGUCUCUGCAAAGAGAUUUGUUCUUGGGCUUUAUUUUUUUAUCUUUAUUUAAGAUCGUCGGACUGUAGAACUCUGAACGUGUAGAUCUCGGUGGUCGCCGUAUCAUU", "conditions": "50 mM KCl, 10 mM MgCl2; 20 mM Tris-HCl pH 8.0, 37 °C, 500 μM NTPs, NusA; readthrough fold-change 6.0"}, "[2]": {"system": "Cba ppGpp riboswitch (native, leader-less; PRA1_Cba2-2_dRP1) (RNA, riboswitch) AUAAUAAGAGAGUGUAUCUAGGGUUCCGGUCAAUAGAUGUCUGGUCCGAGCGAUACAGGAUUUCAAUCUACACUUUUAGGAAAAAAGCCUAAAGGACGAGUCUCUGCAAAGAGAUUUGUUCUUGGGCUUUAUUUUUUUAUCUUUAUUUAAGAUCGUCGGACUGUAGAACUCUGAACGUGUAGAUCUCGGUGGUCGCCGUAUCAUU", "conditions": "50 mM KCl, 10 mM MgCl2; 20 mM Tris-HCl pH 8.0, 37 °C, 500 μM NTPs, NusA only stated for leader assay; readthrough fold-change 1.9"}, "[3]": {"system": "pfl ZTP riboswitch with C3-SC1 leader (PRA1_Cap3_SC1_CbePfl_dRP1) (RNA, riboswitch) AUUCGGUGCUCUUCUCUUCGGCCUUCGGGCCAAAUUAGAUAUUAGUCAUAUGACUGACGGAAGUGGAGUUACCACAUGAAGUAUGACUAGGCAUAUUAUCUUAUAUGCCACAAAAAGCCGACCGUCUGGGCAAAAAAAGCCUGGAUUGCGUCGGCUUUUUUAUAUGGAAAAGAUCGUCGGACUGUAGAACUCUGAACGUGUAGAUCUCGGUGGUCGCCGUAUCAUU", "conditions": "50 mM KCl, 10 mM MgCl2; 20 mM Tris-HCl pH 8.0, 37 °C, 500 μM NTPs; up to 1 mM ZMP; readthrough fold-change 7.1"}, "[4]": {"system": "pfl ZTP riboswitch (native, leader-less; PRA1_CbePfl_dRP1) (RNA, riboswitch) AUAUUAGAUAUUAGUCAUAUGACUGACGGAAGUGGAGUUACCACAUGAAGUAUGACUAGGCAUAUUAUCUUAUAUGCCACAAAAAGCCGACCGUCUGGGCAAAAAAAGCCUGGAUUGCGUCGGCUUUUUUAUAUGGAAAAGAUCGUCGGACUGUAGAACUCUGAACGUGUAGAUCUCGGUGGUCGCCGUAUCAUU", "conditions": "50 mM KCl, 10 mM MgCl2; 20 mM Tris-HCl pH 8.0, 37 °C, 500 μM NTPs; up to 1 mM ZMP; readthrough fold-change 3.6"}}}
{"smiles": "Nc1nc2c(ncn2[C@@H]2O[C@H](COP(=O)(O)OP(=O)(O)O)[C@@H](OP(=O)(O)OP(=O)(O)O)[C@H]2O)c(=O)[nH]1", "values": [{"measurement": "binding", "setting": "[1]", "value": "yes"}, {"measurement": "binding", "setting": "[2]", "value": "yes"}]}
{"smiles": "NC(=O)c1ncn([C@@H]2O[C@H](COP(=O)(O)O)[C@@H](O)[C@H]2O)c1N", "values": [{"measurement": "binding", "setting": "[3]", "value": "yes"}, {"measurement": "binding", "setting": "[4]", "value": "yes"}]}
